Reference: patent publication US12202829B2, “Heterocyclic compound” (FIMECS, Inc., priority 2018, dated 2025)

Key:
GSK3α [1] = target: T1, GSK3α (Homo sapiens, UniProt P49840); assay: KINOMEscan active site-dependent competitive binding assay, GSK3α; set-up: purchased Discover X (KINOMEscan service); conditions: test compound 1 μM; DMSO = 100% Ctrl, control compound = 0% Ctrl
Description: (§1) Each of GSK3a/B and GCN2 binding inhibitory activity was evaluated using active site-dependent competitive assay KINOMEscan provided by Discover X (Goldstein, D. M. et al. High-throughput kinase profiling as a platform for drug discovery. Nat. Rev. Drug Discovery. 7, 391-397 (2008)). the “% Ctrl” when the concentration of the test compound is 1 μM is shown in the table below. The “% Ctrl” is calculated by the following formula. (test compound signal−positive control compound signal)/(negative control compound signal−positive control compound signal)×100 • Negative control compound=DMSO (100% Ctrl) • Positive control compound=control compound (0% Ctrl)

[2] = target: T2, human XIAP_BIR3 domain purified protein (Homo sapiens, UniProt P98170); assay: XIAP binding inhibitory activity, HTRF method with b-Smac ligand; conditions: test compound 3 μM; first symbol of the cell; read-out: XIAP binding inhibition rate when the concentration of the test compound is 3 μM
T2 construct: purchased R & D
Summary of the method: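 HTRF competition: human XIAP BIR3 and C-terminally biotinylated Smac peptide AVPIAQK, each diluted to 90 nM before addition, in HEPES pH 7.5 buffer with NaCl, BSA, Triton X-100. Eu-cryptate anti-His/streptavidin-XL665 detection after ≥4 h at room temperature; inhibition % from 665/615 ratio versus no-compound control.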

GSK3β [3] = target: T3, GSK3β (Homo sapiens, UniProt P49841); assay: KINOMEscan active site-dependent competitive binding assay, GSK3β; set-up: purchased Discover X (KINOMEscan service); conditions: test compound 1 μM; DMSO = 100% Ctrl, control compound = 0% Ctrl
Description: as §1

GSK3α/β and GCN2 = assay: Ubiquitin-proteasome system dependency of degradation in THP1 cells with Epoxomicin; type: cell-based, human; conditions: test compound 10 μM with or without 1 μM Epoxomicin, 8 hours, FIG. 2
Description: THP1 cells were seeded at a density of 1×10^6 cells/well in 24-well plate and treated with DMSO control or Example 55 (10 μM) with or without 1 μM of Epoxomicin and incubated for 8 hours. The cells were collected and lysed on ice for 30 minutes in RIPA buffer (Thermo Fisher #87787) containing a protease inhibitor cocktail (Sigma-Aldrich). The lysates were sonicated for 30 sec ON/30 sec OFF for ten cycles and centrifuged for 15 minutes at 15 krpm at 4° C. Protein concentrations were determined by the BCA assay (Thermo Fisher). Proteins were separated with Nu-PAGE (Thermo Fisher) and analyzed by western blotting (standard protocol) using antibodies of anti-GSK3α/β Cell Signaling #5676), GCN2 (Cell Signaling #3302), and β-actin (Sigma #A2066) (FIG. 2).

GCN2 [4] = target: T4, GCN2 (Homo sapiens, UniProt Q9P2K8); assay: In vitro degradation activity of GCN2 in THP1 cells, western blotting; type: cell-based; conditions: test compound 10 μM, 24 hours, relative to DMSO control set at 100
T4 construct: endogenous in cells; host or cells: THP1 (ATCC)
Description: (§2) In vitro degradation activities of GSK3α/β and GCN2 of the example compounds were evaluated by the following method. THP1 cells were purchased from ATCC and cultured in RPMI-1640 supplemented with 10% FBS and 1% penicillin/streptomycin. THP1 cells were seeded at a density of 1×10^6 cells/well in 24-well plate and treated with DMSO control or Example 55 (1, 3, 10 μM), and then incubated for 24 hours. The cells were collected and lysed on ice for 30 minutes in RIPA buffer (Thermo Fisher #87787) containing a protease inhibitor cocktail (Sigma-Aldrich). The lysates were sonicated for 30 sec ON/30 sec OFF for ten cycles and centrifuged for 15 minutes at 15 krpm at 4° C. Protein concentrations were determined by the BCA assay (Thermo Fisher). Proteins were separated with Nu-PAGE (Thermo Fisher) and analyzed by western blotting (standard protocol) using antibodies of anti-GSK3α/β (Cell Signaling #5676), GCN2 (Cell Signaling #3302), and R-actin (Sigma #A2066) (FIG. 1). Bands (luminescent intensities) were quantified using LAS-4000 luminescent image analyzer (Fuji). The values of GSK3α/β and GCN2 were corrected by the internal control value of β-actin and analyzed relative to DMSO control set at 100. The remaining protein rate (%) are described as A≤25%, 25%<B≤50%, 50%<C≤75%, D>75% when the concentration of the test compound is 10 μM.

GSK3β [5] = target: T3, GSK3β; assay: In vitro degradation activity of GSK3β in THP1 cells, western blotting; type: cell-based; set-up: endogenous in cells; host or cells: THP1 (ATCC); conditions: test compound 10 μM, 24 hours, relative to DMSO control set at 100
Description: as §2

GCN2 [6] = target: T5, GCN2 (Homo sapiens, UniProt Q9P2K8, S808G); assay: KINOMEscan active site-dependent competitive binding assay, GCN2; conditions: test compound 1 μM; DMSO = 100% Ctrl, control compound = 0% Ctrl
T5 construct: purchased Discover X (KINOMEscan service)
T5 sequence (Q9P2K8 590-1001 S808G limits assumed): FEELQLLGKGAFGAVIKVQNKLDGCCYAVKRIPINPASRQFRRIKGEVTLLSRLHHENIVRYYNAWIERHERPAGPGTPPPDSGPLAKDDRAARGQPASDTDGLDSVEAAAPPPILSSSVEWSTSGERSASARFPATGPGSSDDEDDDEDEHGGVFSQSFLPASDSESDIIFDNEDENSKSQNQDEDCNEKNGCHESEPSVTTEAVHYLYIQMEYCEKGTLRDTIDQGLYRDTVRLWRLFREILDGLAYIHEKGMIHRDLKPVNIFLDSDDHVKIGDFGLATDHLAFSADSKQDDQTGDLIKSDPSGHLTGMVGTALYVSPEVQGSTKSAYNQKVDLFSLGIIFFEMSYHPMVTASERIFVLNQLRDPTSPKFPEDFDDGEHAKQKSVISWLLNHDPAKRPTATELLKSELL
Description: as §1

GSK3α [7] = target: T1, GSK3α; assay: In vitro degradation activity of GSK3α in THP1 cells, western blotting; type: cell-based; set-up: endogenous in cells; host or cells: THP1 (ATCC); conditions: test compound 10 μM, 24 hours, relative to DMSO control set at 100
Description: as §2

T3 sequence (P49841 whole entry): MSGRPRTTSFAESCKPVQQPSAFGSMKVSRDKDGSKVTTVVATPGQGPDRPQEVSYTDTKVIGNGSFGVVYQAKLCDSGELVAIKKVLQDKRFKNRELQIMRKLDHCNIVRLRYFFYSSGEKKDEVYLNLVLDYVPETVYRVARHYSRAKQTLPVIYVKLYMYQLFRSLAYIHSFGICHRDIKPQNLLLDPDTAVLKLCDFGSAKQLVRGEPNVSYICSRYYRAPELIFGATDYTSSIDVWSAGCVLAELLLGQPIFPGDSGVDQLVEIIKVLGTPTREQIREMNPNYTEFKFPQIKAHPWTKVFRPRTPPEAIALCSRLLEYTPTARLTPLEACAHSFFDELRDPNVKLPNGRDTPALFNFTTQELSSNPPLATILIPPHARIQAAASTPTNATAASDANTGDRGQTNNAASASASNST
T1 sequence (P49840 whole entry): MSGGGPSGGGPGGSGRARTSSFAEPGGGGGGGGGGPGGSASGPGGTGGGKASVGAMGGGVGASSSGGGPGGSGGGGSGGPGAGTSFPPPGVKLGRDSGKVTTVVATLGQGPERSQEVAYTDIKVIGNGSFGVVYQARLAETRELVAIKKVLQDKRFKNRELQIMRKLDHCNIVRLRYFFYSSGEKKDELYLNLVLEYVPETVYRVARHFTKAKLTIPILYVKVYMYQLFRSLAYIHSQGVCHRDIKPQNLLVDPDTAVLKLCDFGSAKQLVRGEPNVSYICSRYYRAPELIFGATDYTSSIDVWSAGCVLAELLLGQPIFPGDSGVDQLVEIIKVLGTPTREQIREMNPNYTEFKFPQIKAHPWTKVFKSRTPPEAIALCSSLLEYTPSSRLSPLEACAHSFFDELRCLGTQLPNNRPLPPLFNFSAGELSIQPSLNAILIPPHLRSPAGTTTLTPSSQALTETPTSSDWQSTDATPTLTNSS
T2 sequence (P98170 252-356 limits assumed): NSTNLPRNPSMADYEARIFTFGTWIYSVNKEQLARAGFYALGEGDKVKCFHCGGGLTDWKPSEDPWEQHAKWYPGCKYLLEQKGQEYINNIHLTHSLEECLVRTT
T4 sequence (Q9P2K8 whole entry): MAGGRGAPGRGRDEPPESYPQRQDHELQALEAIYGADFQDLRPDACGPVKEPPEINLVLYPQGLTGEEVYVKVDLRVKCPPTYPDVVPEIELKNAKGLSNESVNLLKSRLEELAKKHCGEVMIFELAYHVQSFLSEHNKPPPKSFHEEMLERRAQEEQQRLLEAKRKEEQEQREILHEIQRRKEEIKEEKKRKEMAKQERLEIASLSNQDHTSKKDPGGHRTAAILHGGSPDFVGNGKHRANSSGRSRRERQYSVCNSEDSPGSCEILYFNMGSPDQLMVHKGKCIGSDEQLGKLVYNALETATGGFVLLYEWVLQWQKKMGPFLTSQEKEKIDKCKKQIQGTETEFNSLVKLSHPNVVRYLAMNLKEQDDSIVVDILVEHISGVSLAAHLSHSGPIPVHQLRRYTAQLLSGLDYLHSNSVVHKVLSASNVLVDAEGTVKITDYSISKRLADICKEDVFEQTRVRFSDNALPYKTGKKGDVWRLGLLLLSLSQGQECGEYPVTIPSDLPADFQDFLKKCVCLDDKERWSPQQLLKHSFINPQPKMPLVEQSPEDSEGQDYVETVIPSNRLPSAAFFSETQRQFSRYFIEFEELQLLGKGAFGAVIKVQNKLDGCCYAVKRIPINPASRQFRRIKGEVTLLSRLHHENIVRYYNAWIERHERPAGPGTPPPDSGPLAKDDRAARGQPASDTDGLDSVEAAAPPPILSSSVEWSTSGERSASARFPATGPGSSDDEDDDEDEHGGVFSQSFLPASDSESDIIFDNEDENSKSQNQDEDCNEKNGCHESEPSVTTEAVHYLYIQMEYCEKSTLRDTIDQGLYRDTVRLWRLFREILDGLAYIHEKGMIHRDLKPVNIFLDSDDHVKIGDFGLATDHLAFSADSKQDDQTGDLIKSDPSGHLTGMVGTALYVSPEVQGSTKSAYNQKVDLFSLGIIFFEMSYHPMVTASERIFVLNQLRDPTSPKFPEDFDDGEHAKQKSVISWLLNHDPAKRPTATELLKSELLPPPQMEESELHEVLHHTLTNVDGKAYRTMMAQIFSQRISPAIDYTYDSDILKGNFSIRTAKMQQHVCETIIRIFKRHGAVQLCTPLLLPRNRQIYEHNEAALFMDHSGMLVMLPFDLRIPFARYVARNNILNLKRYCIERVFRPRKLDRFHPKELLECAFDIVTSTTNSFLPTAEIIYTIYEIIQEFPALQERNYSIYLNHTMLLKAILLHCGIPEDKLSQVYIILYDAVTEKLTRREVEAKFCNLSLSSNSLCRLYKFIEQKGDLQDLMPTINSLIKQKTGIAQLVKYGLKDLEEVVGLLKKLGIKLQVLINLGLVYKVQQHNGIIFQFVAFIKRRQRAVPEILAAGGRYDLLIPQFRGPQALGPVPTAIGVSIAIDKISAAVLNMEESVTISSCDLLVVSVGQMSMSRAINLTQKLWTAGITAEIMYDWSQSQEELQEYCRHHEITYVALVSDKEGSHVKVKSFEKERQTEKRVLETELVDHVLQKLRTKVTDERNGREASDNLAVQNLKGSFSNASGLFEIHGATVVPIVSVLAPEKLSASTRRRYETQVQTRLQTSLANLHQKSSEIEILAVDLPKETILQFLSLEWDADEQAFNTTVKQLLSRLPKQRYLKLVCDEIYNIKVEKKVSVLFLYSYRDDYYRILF

CN[C@@H](C)C(=O)N[C@H](C(=O)N1CCN(C(=O)c2c(C(=O)NCCOCCOCC(=O)N3CCN(c4ccc(Nc5ncc6nnn(-c7ccc(OC)c(OC)c7)c6n5)cc4)CC3)c3ccc(OC)cc3n2C)CC1)C1CCCCC1 [Example 55, 2-(4-((S)-2-Cyclohexyl-2-((S)-2-(methylamino)propanamido)acetyl)piperazine-1-carbonyl)-N-(2-(2-(2-(4-(4-((3-(3,4-dimethoxyphenyl)-3H-[1,2,3]triazolo[4,5-d]pyrimidin-5-yl)amino)phenyl)piperazin-1-yl)-2-oxoethoxy)ethoxy)ethyl)-6-methoxy-1-methyl-1H-indole-3-carboxamide]
remaining binding at 1 µM (GSK3α [1]): 39% | inhibition at 3 µM [2]: > 75% | remaining binding at 1 µM (GSK3β [3]): 11% | degradation activity of GSK3α/β and GCN2 with proteasome inhibitor Epoxomicin (GSK3α/β and GCN2): cancelled by the proteasome inhibitor Epoxomicin treatment | remaining protein rate (%) GCN2 (GCN2 [4]): A (A≤25%) | remaining protein rate (%) GSK3β (GSK3β [5]): B (25%<B≤50%) | remaining binding at 1 µM (GCN2 [6]): 0.35% | remaining protein rate (%) GSK3α (GSK3α [7]): B (25%<B≤50%)
